Results taken from PubChem BioAssay AID1259407 (Chemical Carcinogenesis Research Information System (CCRIS), 2018).
The source made the active and inactive calls. No rule for the calls is given here.

System: CCRIS mutagenicity, Ames/micronucleus/aberration tests
Assay: CCRIS mutagenicity studies

`OC(CCl)CCl` was tested, and the mutagenic call (Test System: AMES SALMONELLA TYPHIMURIUM, Strain/Indicator: TA97, Metabolic Activation: HAMSTER, LIVER, S-9, AROCLOR 1254 (10%), Method: PREINCUBATION) was “active; positive”, the mutagenic call (Test System: AMES SALMONELLA TYPHIMURIUM, Strain/Indicator: TA97, Metabolic Activation: NONE, Method: PREINCUBATION) was “inactive; negative” and the mutagenic call (Test System: AMES SALMONELLA TYPHIMURIUM, Strain/Indicator: TA97, Metabolic Activation: RAT, LIVER, S-9, AROCLOR 1254 (10%), Method: PREINCUBATION) was “inactive; negative”. For the same compound, the mutagenic call (Test System: AMES SALMONELLA TYPHIMURIUM, Strain/Indicator: TA98, Metabolic Activation: HAMSTER, LIVER, S-9, AROCLOR 1254 (10%), Method: PREINCUBATION) was “active; positive”, the mutagenic call (Test System: AMES SALMONELLA TYPHIMURIUM, Strain/Indicator: TA98, Metabolic Activation: NONE, Method: PREINCUBATION) was “inactive; negative” and the mutagenic call (Test System: AMES SALMONELLA TYPHIMURIUM, Strain/Indicator: TA98, Metabolic Activation: RAT, LIVER, S-9, AROCLOR 1254 (10%), Method: PREINCUBATION) was “inactive; negative”. For the same compound, the mutagenic call (Test System: AMES SALMONELLA TYPHIMURIUM, Strain/Indicator: TA100, Metabolic Activation: ADH AND NAD+ (5 OR 50 µL), Method: PREINCUBATION) was “active; positive”, the mutagenic call (Test System: AMES SALMONELLA TYPHIMURIUM, Strain/Indicator: TA100, Metabolic Activation: HAMSTER, LIVER, S-9, AROCLOR 1254 (10%), Method: PREINCUBATION) was “active; positive” and the mutagenic call (Test System: AMES SALMONELLA TYPHIMURIUM, Strain/Indicator: TA100, Metabolic Activation: MOUSE, LIVER, S-9, PHENOBARBITAL, Method: STANDARD PLATE) was “active; positive”. For the same compound, the mutagenic call (Test System: AMES SALMONELLA TYPHIMURIUM, Strain/Indicator: TA100, Metabolic Activation: NONE, Method: PREINCUBATION) was “active; positive”, the mutagenic call (Test System: AMES SALMONELLA TYPHIMURIUM, Strain/Indicator: TA100, Metabolic Activation: NONE, Method: STANDARD PLATE) was “active; positive” and the mutagenic call (Test System: AMES SALMONELLA TYPHIMURIUM, Strain/Indicator: TA100, Metabolic Activation: RAT, LIVER, S-9, AROCLOR 1254 (10%), Method: PREINCUBATION) was “active; positive”. The mutagenic call (Test System: AMES SALMONELLA TYPHIMURIUM, Strain/Indicator: TA100, Metabolic Activation: RAT, LIVER, S-9, AROCLOR 1254 (NAD+), Method: PREINCUBATION) was “active; positive”, the mutagenic call (Test System: AMES SALMONELLA TYPHIMURIUM, Strain/Indicator: TA100, Metabolic Activation: RAT, LIVER, S-9, AROCLOR 1254 (NADP+), Method: PREINCUBATION) was “active; positive” and the mutagenic call (Test System: AMES SALMONELLA TYPHIMURIUM, Strain/Indicator: TA100, Metabolic Activation: RAT, LIVER, S-9, PCB, Method: STANDARD PLATE) was “active; positive”. For the same compound, the mutagenic call (Test System: AMES SALMONELLA TYPHIMURIUM, Strain/Indicator: TA100, Metabolic Activation: RAT, LIVER, S-9, PHENOBARBITAL, Method: STANDARD PLATE) was “active; positive”, the mutagenic call (Test System: AMES SALMONELLA TYPHIMURIUM, Strain/Indicator: TA1535, Metabolic Activation: ADH AND NAD+ (50 µL), Method: PREINCUBATION) was “active; positive” and the mutagenic call (Test System: AMES SALMONELLA TYPHIMURIUM, Strain/Indicator: TA1535, Metabolic Activation: HAMSTER, LIVER, S-9, AROCLOR 1254 (10%), Method: PREINCUBATION) was “active; positive”. For the same compound, the mutagenic call (Test System: AMES SALMONELLA TYPHIMURIUM, Strain/Indicator: TA1535, Metabolic Activation: NONE, Method: PREINCUBATION) was “active; positive”, the mutagenic call (Test System: AMES SALMONELLA TYPHIMURIUM, Strain/Indicator: TA1535, Metabolic Activation: NONE, Method: STANDARD PLATE) was “active; positive” and the mutagenic call (Test System: AMES SALMONELLA TYPHIMURIUM, Strain/Indicator: TA1535, Metabolic Activation: RAT, LIVER, S-9, AROCLOR 1254 (10%), Method: PREINCUBATION) was “active; positive”. For the same compound, the mutagenic call (Test System: AMES SALMONELLA TYPHIMURIUM, Strain/Indicator: TA1535, Metabolic Activation: RAT, LIVER, S-9, AROCLOR 1254 (ADH AND NAD+), Method: PREINCUBATION) was “active; positive”, the mutagenic call (Test System: AMES SALMONELLA TYPHIMURIUM, Strain/Indicator: TA1535, Metabolic Activation: RAT, LIVER, S-9, AROCLOR 1254 (NADP+), Method: PREINCUBATION) was “active; positive” and the mutagenic call (Test System: AMES SALMONELLA TYPHIMURIUM, Strain/Indicator: TA1535, Metabolic Activation: RAT, LIVER, S-9, PCB, AROCLOR 1254, Method: STANDARD PLATE) was “active; positive”.

`CC(C)(C)N(CC(O)COc1cccc2c1CC(O)C(O)C2)N=O` (stereo unspecified) was tested, and the mutagenic call (Test System: UDS HUMAN HEPATOCYTES, Strain/Indicator: THY INCORP, Metabolic Activation: NONE, Method: AUTORADIOGRAPHY) was “active; positive” and the mutagenic call (Test System: UDS RAT HEPATOCYTES, Strain/Indicator: THY INCORP, Metabolic Activation: NONE, Method: AUTORADIOGRAPHY) was “active; positive”.
